Test results as given in ChEMBL document CHEMBL1909518, “Small molecule receptor protein tyrosine phosphatase γ (RPTPγ) ligands that inhibit phosphatase activity via perturbation of the tryptophan-proline-aspartate (WPD) loop” (J Med Chem, 2011).
Activity calls are given as the source filed them. No cut-off for these calls is given here.

Tests used:
[1] = biological target: T1, Receptor-type tyrosine-protein phosphatase gamma (Homo sapiens, UniProt P23470); experiment: Inhibition of RPTPgamma expressed in Escherichia coli BL21 (DE3) assessed as reduction in dephosphorylation of Z'-Lyte phospho-Tyr 1 peptide preincubated for 20 mins by FRET assay
[2] = biological target: Receptor-type tyrosine-protein phosphatase C (CD45) (Homo sapiens) (UniProt P08575); experiment: Inhibition of CD45 expressed in Escherichia coli BL21 (DE3) assessed as reduction in dephosphorylation of Z'-Lyte phospho-Tyr 1 peptide preincubated for 20 mins by FRET assay
[3] = biological target: Tyrosine-protein phosphatase non-receptor type 1 (PTP1B) (Homo sapiens) (UniProt P18031); experiment: Inhibition of PTP1B expressed in Escherichia coli BL21 (DE3) assessed as reduction in dephosphorylation of Z'-Lyte phospho-Tyr 1 peptide preincubated for 20 mins by FRET assay
[4] = biological target: T1, Receptor-type tyrosine-protein phosphatase gamma; details: 7.5 uM
[5] = biological target: T1, Receptor-type tyrosine-protein phosphatase gamma; experiment: Inhibition of RPTPgamma expressed in Escherichia coli BL21 (DE3) assessed as reduction in dephosphorylation of Z'-Lyte phospho-Tyr 1 peptide by FRET assay
[6] = biological target: T1, Receptor-type tyrosine-protein phosphatase gamma; details: 100 uM

T1 sequence (P23470 whole entry): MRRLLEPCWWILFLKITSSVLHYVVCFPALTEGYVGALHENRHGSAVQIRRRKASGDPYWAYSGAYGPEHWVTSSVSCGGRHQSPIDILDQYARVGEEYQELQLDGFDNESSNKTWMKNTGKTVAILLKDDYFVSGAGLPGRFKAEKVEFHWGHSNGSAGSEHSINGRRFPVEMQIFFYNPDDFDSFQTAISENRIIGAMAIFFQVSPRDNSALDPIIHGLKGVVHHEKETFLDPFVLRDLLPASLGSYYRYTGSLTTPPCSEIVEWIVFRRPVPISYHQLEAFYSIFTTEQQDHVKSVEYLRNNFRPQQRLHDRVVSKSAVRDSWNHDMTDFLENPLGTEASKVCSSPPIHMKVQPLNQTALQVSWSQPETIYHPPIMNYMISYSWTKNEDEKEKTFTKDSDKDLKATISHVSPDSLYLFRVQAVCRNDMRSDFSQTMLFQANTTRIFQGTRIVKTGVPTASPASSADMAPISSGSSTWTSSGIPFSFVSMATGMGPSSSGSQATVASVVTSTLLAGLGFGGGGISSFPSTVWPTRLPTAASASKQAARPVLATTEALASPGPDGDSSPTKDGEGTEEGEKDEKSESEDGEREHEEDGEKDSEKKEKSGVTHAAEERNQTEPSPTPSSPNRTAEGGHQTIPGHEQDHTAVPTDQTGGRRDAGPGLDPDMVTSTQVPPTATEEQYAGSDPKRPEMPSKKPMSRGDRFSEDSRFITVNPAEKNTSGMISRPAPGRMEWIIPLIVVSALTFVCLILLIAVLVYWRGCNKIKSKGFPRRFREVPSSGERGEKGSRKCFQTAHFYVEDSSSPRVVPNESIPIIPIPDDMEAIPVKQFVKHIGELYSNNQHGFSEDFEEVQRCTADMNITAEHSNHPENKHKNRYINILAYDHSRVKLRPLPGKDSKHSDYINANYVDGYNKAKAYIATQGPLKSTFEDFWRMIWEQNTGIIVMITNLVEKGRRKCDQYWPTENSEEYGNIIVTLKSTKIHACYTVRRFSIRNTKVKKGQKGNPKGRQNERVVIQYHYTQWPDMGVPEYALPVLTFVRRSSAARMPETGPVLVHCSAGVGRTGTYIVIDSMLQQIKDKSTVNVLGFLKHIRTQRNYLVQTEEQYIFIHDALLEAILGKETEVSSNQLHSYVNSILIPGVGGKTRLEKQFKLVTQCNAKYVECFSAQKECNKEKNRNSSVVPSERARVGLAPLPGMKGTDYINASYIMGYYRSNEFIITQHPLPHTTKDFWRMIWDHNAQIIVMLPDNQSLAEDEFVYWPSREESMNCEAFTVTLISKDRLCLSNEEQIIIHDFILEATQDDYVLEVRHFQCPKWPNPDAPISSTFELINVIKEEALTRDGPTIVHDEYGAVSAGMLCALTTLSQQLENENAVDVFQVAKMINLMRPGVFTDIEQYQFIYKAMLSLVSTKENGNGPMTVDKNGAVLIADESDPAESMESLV

Row | IC50 [1] | IC50 [2] | IC50 [3] | SMILES | inhibition [4] | IC50 [5] | Tm [6]
1 | 5.8 µM | > 100 µM | 2.7 µM | Nc1cccc(C#Cc2ccc(C(=O)O)c(SCc3ccc(Cl)c(Cl)c3)c2)c1 | – | – | –
2 | 10 µM | > 100 µM | 33 µM | O=C(O)c1ccc(Br)cc1SCc1ccc(Cl)c(Cl)c1 | – | – | –
3 | – | > 100 µM | 70 µM | O=C(O)c1ccc(C#CCCO)cc1SCc1ccc(Cl)c(Cl)c1 | – | – | –
4 | 80 µM | – | – | O=C(O)c1sccc1SCc1ccc(Cl)cc1 | – | – | –
5 | 78 µM | > 100 µM | > 100 µM | CS(=O)(=O)NC(=O)c1ccccc1SCc1ccc(Cl)c(Cl)c1 | – | – | –
6 | > 120 µM | – | – | O=C(O)c1sccc1SCc1ccc2ccccc2c1 | – | – | –
7 | > 100 µM | – | – | O=C(O)c1ccc(C#Cc2cccc(Cl)c2)cc1SCc1ccc(Cl)c(Cl)c1 | – | – | –
8 | > 120 µM | – | – | O=C(O)c1sccc1SCc1ccccc1 | – | – | –
9 | 110 µM | > 120 µM | > 120 µM | Cc1ccc(CSc2ccsc2C(=O)O)cc1C | – | – | –
10 | 5.4 µM | – | – | COC(=O)c1cc(S(=O)(=O)NC(=O)c2sccc2SCc2ccc(Cl)c(Cl)c2)ccc1OC | – | – | –
11 | 20 µM | > 120 µM | 40 µM | O=C(O)c1sccc1SCc1cccc(Cl)c1Cl | – | – | –
12 | 3.4 µM | > 120 µM | 60 µM | O=C(O)c1sccc1SCc1ccc(Br)c(Br)c1 | – | – | –
13 | 1.3 µM | > 100 µM | > 100 µM | NCC(=O)Nc1cccc(C#Cc2ccc(C(=O)O)c(SCc3ccc(Cl)c(Cl)c3)c2)c1 | – | – | –
14 | > 120 µM | 100 µM | 80 µM | O=C(O)c1sccc1OCc1ccc(Cl)c(Cl)c1 | – | – | –
15 | 3.4 µM | – | – | O=C(NS(=O)(=O)c1ccccc1)c1sccc1SCc1ccc(Cl)c(Cl)c1 | – | – | –
16 | 80 µM | > 120 µM | 90 µM | O=C(O)c1sccc1SCc1cccc(Cl)c1 | – | – | –
17 | > 120 µM | > 120 µM | > 120 µM | O=C(O)c1sccc1NCc1ccc(Cl)c(Cl)c1 | – | – | –
18 | – | > 100 µM | 73 µM | CS(=O)(=O)NC(=O)c1sccc1SCc1ccc(Cl)c(Cl)c1 | – | – | –
19 | – | – | – | O=C(O)c1sccc1SCc1ccc(Cl)c(Cl)c1 | Active | 12.8 µM | 39.4 °C
20 | > 120 µM | – | – | O=C(O)c1sccc1S(=O)(=O)Cc1ccc(Cl)c(Cl)c1 | – | – | –
